BindingDB's records for doi:10.1021/acschembio.6b00304 (Icahn School of Medicine At Mount Sinai, 2016)

target: T1, Solute carrier family 2, facilitated glucose transporter member 1 (Homo sapiens, UniProt P11166); assay: [3H]-2-Deoxy-D-glucose ([3H]-2-DG) Uptake Assay
T1 sequence (P11166 whole entry): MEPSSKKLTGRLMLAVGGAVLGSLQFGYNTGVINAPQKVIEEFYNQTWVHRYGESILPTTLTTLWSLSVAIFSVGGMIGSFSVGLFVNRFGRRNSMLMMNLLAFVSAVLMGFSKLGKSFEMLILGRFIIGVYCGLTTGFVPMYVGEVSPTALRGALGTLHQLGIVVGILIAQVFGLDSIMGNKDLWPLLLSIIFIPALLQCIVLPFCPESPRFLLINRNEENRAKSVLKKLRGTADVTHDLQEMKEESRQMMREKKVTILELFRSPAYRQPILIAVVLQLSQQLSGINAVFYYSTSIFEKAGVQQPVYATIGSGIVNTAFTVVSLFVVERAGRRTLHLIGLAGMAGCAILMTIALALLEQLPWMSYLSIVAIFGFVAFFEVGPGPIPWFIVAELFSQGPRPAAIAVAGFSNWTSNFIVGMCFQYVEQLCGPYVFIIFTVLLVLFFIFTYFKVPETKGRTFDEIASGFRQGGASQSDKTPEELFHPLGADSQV
Procedure: The stably transfected CHO cells were seeded in poly 24-well plates and were grown to 80−90% confluence. […] The known hGLUT1 inhibitor phloretin (Accela ChemBio, San Diego, CA) was included as a positive control. […] Compounds were obtained from the National Cancer Institute (NCI) or purchased from commercial vendors. The reaction was terminated by washing cells twice with ice-cold PBS, followed by the addition of 200 μL of lysis buffer (0.1% (w/v) SDS, 0.1 N NaOH).Intracellular radioactivity was determined by scintillation counting.

Row | SMILES | IC50 [µM]
1 | O=c1[nH]c(=O)c2ncn(-c3ccccc3)c2[nH]1 [PUG-2] | 58.6
2 | c1ccc(CNc2ncnc3n[nH]nc23)cc1 [PUG-4] | 30
3 | CC[C@@H]1O[C@H](c2cc(O)cc(/C=C/c3ccc(O)c(O)c3)c2)[C@@H](O)[C@H](O)[C@H]1O [PUG-6] | 37.9

Stronger by IC50, values ahead:

Row | IC50 [µM] | SMILES
4 | 27.1 | NNc1nc(NCc2ccco2)c2nc[nH]c2n1 [PUG-3]
5 | 23 | O=C(CCc1ccc(O)cc1)c1c(O)cc(O)cc1O[C@H]1O[C@@H](CO)[C@H](O)[C@@H](O)[C@@H]1O [PUG-5 (Phlorizin)]
6 | 11.8 | O=c1[nH]ncc2c1Sc1cn[nH]c(=O)c1S2 [PUG-7]
7 | 22.5 | O=c1[nH][nH]c(=O)c2[nH]cnc12 [PUG-8]
